Data from US20220184091A1, “Methods of Treating Cancer with Chk1 Inhibitors” (Sierra Oncology, Inc., priority 2019, published 2022).
Read-outs that look alike come from different tables or passages of the source.

How the values were obtained:
[1] = system: HGSOC PDX, OVCAR3, Ep-Myc, MOLM-13, TH-MYC, MDA-MB-231, Renca, LL/2 models; test: In vivo efficacy of SRA737 as a single agent; parameters: species or system mouse
Method: A program of in vivo efficacy studies was performed to assess the activity of SRA737 in combination with genotoxic chemotherapy and targeted agents, and as monotherapy.
One of these models also carried a MYCN amplification. A fourth HGSOC PDX model with partial resistance to PARPi was also sensitive to high dose SRA737 monotherapy.

5637 = test: Cell viability, bladder cancer line 5637; format: cell-based
[2] = SRA737 plasma and tumor concentrations in HT29 xenograft model; format: in vivo; details: mouse, oral
Method: For each dose, columns from left to right are concentrations in plasma at 6 hours, plasma at 24 hours, tumor at 6 hours, and tumor at 24 hours, respectively.
The effect of SRA737 on Gemcitabine induced Chk1 S296 autophosphorylation was assessed as described in Walton et al. (Oncotarget. 2016 Jan. 19; 7(3): 2329-2342), herein incorporated by reference for all it teaches. Briefly, mice bearing HT29 tumor xenografts were administered (i) vehicle control or (ii) gemcitabine (100 mg/kg in saline, IV) or ([…]) and gemcitabine (100 mg/kg) with SRA737 administered 24 hours following gemcitabine administration (n=3 per time point per treatment). […] Exposure in the tumor was greater than 10-fold higher than in plasma. The circulating plasma concentration at this 24-hour timepoint corresponded to a free drug concentration of approximately 6 nM (2 ng/mL) based on plasma protein binding in mice of 94%.

SW1990 = test: Cell viability, pancreatic cancer line SW1990; format: cell-based; details: Homo sapiens
CXCL10 and CCL5 = test: qPCR of CXCL10 and CCL5 in MC38 tumors; format: in vivo, mouse
From the text: FIGS. 23A-D show the qPCR measurement of CXCL10 and CCL5 mRNA expression in MBT-2 (FIG. 23A and FIG. 23B) and MC38 (FIG. 23C and FIG. 23D) tumors resected after 7 or 14 days of treatment with SRA737 5/7 days. Data presented as mean±SD and p values by t-test * p<0.05, **p<0.01, ***p<0.001.
Real-time PCR was done using SYBR Select Master Mix (Life Technologies, cat #4472908) according to the manufacturer's protocol. Primers were purchased from Sigma Aldrich, Inc. Triplicate PCR reactions were run on ABI (7500 Fast Real Time PCR System). The comparative Ct method using the average 2ΔΔCT value for each set of triplicates was used, and the average of the biological replicates was calculated. Negative controls were included for every primer set, and GAPDH was used as the […].
The flank of immunocompetent mice was then treated with SRA737 monotherapy for 5-days-on/2-days-off for either one or two cycles and the expression of CCL5 and CXCL10 in extracted tumors were analyzed. […] The previously used dosing regimen of 5-days-on/2-days-off was modified to a schedule of 7-days-on/7-days-off for SRA737 treatment with or without co-treatment with anti-PD1 (Days 3, 7 and 11) based on the results of induction of chemokines secretion after 7 days.

Chk1 [3] = molecular target: T1, Chk1 (Homo sapiens, UniProt O14757); test: In vitro Chk1 autophosphorylation and potentiation of genotoxic agents; format: cell-based
T1 construct: endogenous in cells
T1 sequence (O14757 whole entry, species assumed): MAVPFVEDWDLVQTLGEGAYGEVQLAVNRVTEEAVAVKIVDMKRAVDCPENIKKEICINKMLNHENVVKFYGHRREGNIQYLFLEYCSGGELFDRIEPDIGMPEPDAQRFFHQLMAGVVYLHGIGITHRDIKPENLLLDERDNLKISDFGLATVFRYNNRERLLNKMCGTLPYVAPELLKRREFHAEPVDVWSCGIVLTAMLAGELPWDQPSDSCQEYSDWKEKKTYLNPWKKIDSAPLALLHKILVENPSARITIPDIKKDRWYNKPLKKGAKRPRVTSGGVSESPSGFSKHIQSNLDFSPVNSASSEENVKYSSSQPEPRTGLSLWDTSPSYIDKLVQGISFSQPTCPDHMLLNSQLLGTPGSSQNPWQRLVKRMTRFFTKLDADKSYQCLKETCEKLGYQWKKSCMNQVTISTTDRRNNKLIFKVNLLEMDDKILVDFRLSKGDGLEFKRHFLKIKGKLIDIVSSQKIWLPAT

Chk1 [4] = molecular target: T1, Chk1; details: previously found; Walton et al.; cited from earlier work
[5] = system: cryopreserved hepatocytes; test: Rank order of stability in cryopreserved hepatocytes across species; format: in vitro ADME, human, mouse, rat, dog, minipig and monkey; details: 10 μM, up to 4 hours
Method: The formation of SRA737-related metabolites was determined in cryopreserved hepatocytes from human, mouse, rat, dog, minipig and monkey samples after incubation with SRA737 at a nominal concentration of 10 μM for up to 4 hours. […] In the human hepatocyte preparation, approximately 67% of the parent remained after 4 hours of incubation compared to 75% and 7% in the rat and minipig preparations, respectively. Eight human SRA737 metabolites were observed. All SRA737 metabolites formed by human hepatocytes were also formed by monkey hepatocytes. Six metabolites were present at equal or greater abundance in the monkey.

RPP tumor = test: Flank RPP (SCLC) tumor growth in B6129F1 immunocompetent mice; format: in vivo, mouse; details: anti-PD-L1 300 μg 1-day-on/6-days-off
Method: Tumors were evaluated twice weekly for the duration of the study. Tumor volumes were measured on all mice three times per week and calculated (width^2×length×0.4) using manual calipers. Once the average tumor size was in the range of 120-150 mm^3, mice were randomized into dosing groups using stratified sampling by assigning three animals per group for short-term reverse-phase protein array analysis and long-term treatment. Dosing schedules and duration varied depending on the study. Mice were weighed three times per week for the duration of the study, and a decrease in body weight >15% was considered indicative of a toxic dose. The Student t-test was used to determine statistical significance between compound- and vehicle-treated groups.
[…] 15A.

## N#Cc1cnc(Nc2cc(NCC3CNCCO3)c(C(F)(F)F)cn2)cn1 (centres unmarked) [SRA737, 5-[[4-[[morpholin-2-yl]methylamino]-5-(trifluoromethyl)-2-pyridyl]amino]pyrazine-2-carbonitrile]
[1]; fourth HGSOC PDX model with partial resistance to PARPi
  sensitivity to high dose monotherapy: sensitive
[1]; several HGSOC PDX models with CCNE1 amplifications and TP53 mutations, data not shown
  antitumor activity as a single agent: Significant antitumor activity
5637
  IC50: 2.1 µM
[2]; plasma, HT29 xenograft, Dose 12.5 mg/kg, read-out: Plasma (6 h)
  concentration at 6 h: 1.01 µM
[2]; plasma, HT29 xenograft, Dose 12.5 mg/kg, read-out: Plasma (24 h)
  concentration at 24 h: 0.0777 µM
[2]; plasma, HT29 xenograft, Dose 25 mg/kg, read-out: Plasma (6 h)
  concentration at 6 h: 2.52 µM
[2]; plasma, HT29 xenograft, Dose 25 mg/kg, read-out: Plasma (24 h)
  concentration at 24 h: 0.893 µM
[2]; plasma, HT29 xenograft, Dose 50 mg/kg, read-out: Plasma (6 h)
  concentration at 6 h: 3.96 µM
[2]; plasma, HT29 xenograft, Dose 50 mg/kg, read-out: Plasma (24 h)
  concentration at 24 h: 0.512 µM
[2]; plasma, HT29 xenograft, Dose 100 mg/kg, read-out: Plasma (6 h)
  concentration at 6 h: 5.84 µM
[2]; plasma, HT29 xenograft, Dose 100 mg/kg, read-out: Plasma (24 h)
  concentration at 24 h: 1.67 µM
[2]; plasma, mice, PK/PD benchmark
  concentration at 24 h: > 0.1 µM
[2]; tumor, HT29 xenograft, Dose 3.125 mg/kg, read-out: Tumor (6 h)
  concentration at 6 h: 3.18 µM
[2]; tumor, HT29 xenograft, Dose 3.125 mg/kg, read-out: Tumor (24 h)
  concentration at 24 h: 0.646 µM
[2]; tumor, HT29 xenograft, Dose 6.25 mg/kg, read-out: Tumor (6 h)
  concentration at 6 h: 4.01 µM
[2]; tumor, HT29 xenograft, Dose 6.25 mg/kg, read-out: Tumor (24 h)
  concentration at 24 h: 0.966 µM
[2]; tumor, HT29 xenograft, Dose 12.5 mg/kg, read-out: Tumor (6 h)
  concentration at 6 h: 19 µM
[2]; tumor, HT29 xenograft, Dose 12.5 mg/kg, read-out: Tumor (24 h)
  concentration at 24 h: 3.97 µM
[2]; tumor, HT29 xenograft, Dose 25 mg/kg, read-out: Tumor (6 h)
  concentration at 6 h: 37.5 µM
[2]; tumor, HT29 xenograft, Dose 25 mg/kg, read-out: Tumor (24 h)
  concentration at 24 h: 16.3 µM
[2]; tumor, HT29 xenograft, Dose 50 mg/kg, read-out: Tumor (6 h)
  concentration at 6 h: 76.3 µM
[2]; tumor, HT29 xenograft, Dose 50 mg/kg, read-out: Tumor (24 h)
  concentration at 24 h: 27.5 µM
[2]; tumor, HT29 xenograft, Dose 100 mg/kg, read-out: Tumor (6 h)
  concentration at 6 h: 132 µM
[2]; tumor, HT29 xenograft, Dose 100 mg/kg, read-out: Tumor (24 h)
  concentration at 24 h: 102 µM
SW1990
  IC50: 0.7 µM
CXCL10 and CCL5; after 7 days
  expression of CCL5: modestly but not statistically significantly reduced
CXCL10 and CCL5; after 14 days, p<0.05
  CXCL10 levels: significantly increased
Chk1 [3]
  potentiation of the cytotoxicity of genotoxic chemotherapeutic agents and targeted agents: dose-dependent potentiation
Chk1 [4]
  off-target activity against other kinases: limited off-target activity against other kinases
[5]
  rank order of stability from most stable to least stable: rat≈mouse >monkey≈human >>dog >>minipig
RPP tumor; SRA737 100 mg/kg 3-days-on/4-days-off or 5-days-on/2-days-off
  anti-tumor response (tumor growth): significant reduction in tumor growth
RPP tumor; LDG 40 mg/kg 1-day-on/6-days-off, SRA737 100 mg/kg 2-day-on/5-days-off
  anti-tumor effect (tumor volume): no significant anti-tumor effect
